Source: ChEMBL document CHEMBL5244254, “Potential treatment methods targeting 2019-nCoV infection” (Eur J Med Chem, 2020)
Values after ≈ are worked out from the molar mass of the structure shown.

Assays:
[1] = Inhibition of Severe acute respiratory syndrome coronavirus 3CL protease; design: species or system Severe acute respiratory syndrome-related coronavirus
Ebolavirus = test: Antiviral activity against Ebolavirus infected in African green monkey Vero E6 cells; format: functional, organism-based; conditions: Orthoebolavirus, Vero C1008
[2] = Cytotoxicity against African green monkey Vero E6 cells assessed as cell growth inhibition incubated for 48 hrs by CCK8 assay; format: toxicity, cell-based, Vero C1008; conditions: chlorocebus sabaeus
[3] = Selectivity ratio of CC50 for African green monkey Vero E6 cells to EC50 for Severe acute respiratory syndrome coronavirus infected in African green monkey Vero E6 cells; format: toxicity, Vero C1008; conditions: read-out: Ratio CC50/EC50
[4] = Cytotoxicity against African green monkey Vero E6 cells assessed as cell growth inhibition incubated for 24 hrs by CCK8 assay; format: toxicity, cell-based, Vero C1008; conditions: chlorocebus sabaeus
[5] = Selectivity ratio of CC50 for African green monkey Vero E6 cells to EC50 for Severe acute respiratory syndrome coronavirus […]; format: toxicity, Vero C1008; conditions: read-out: Ratio CC50/EC50
SARS-CoV [6] = test: Antiviral activity against Severe acute respiratory syndrome coronavirus infected in African green monkey Vero E6 cells; format: functional, organism-based; conditions: Severe acute respiratory syndrome-related coronavirus, Vero C1008
SARS-CoV-2 [7] = test: Antiviral activity against Severe acute respiratory syndrome coronavirus 2 infected in African green monkey Vero cells incubated for 24 to 48 hrs; format: functional, organism-based; conditions: Severe acute respiratory syndrome coronavirus 2, Vero
SARS-CoV-2 [8] = test: Antiviral activity against Severe acute respiratory syndrome coronavirus 2 incubated for 48 hrs by TCID50 assay; format: functional, organism-based; conditions: Severe acute respiratory syndrome coronavirus 2, 48 h
SARS-CoV-2 [9] = test: Antiviral activity against Severe acute respiratory syndrome coronavirus 2; format: functional, organism-based
[10] = Cytotoxicity against African green monkey Vero E6 cells assessed as cell growth inhibition incubated for 48 hrs; format: toxicity, cell-based, Vero C1008; conditions: chlorocebus sabaeus
SARS-CoV [11] = test: Antiviral activity against Severe acute respiratory syndrome coronavirus; format: functional, organism-based; conditions: Severe acute respiratory syndrome-related coronavirus
[12] = Inhibition of Severe acute respiratory syndrome coronavirus CYP3A4; format: ADME, Severe acute respiratory syndrome-related coronavirus
Zika virus [13] = test: Antiviral activity against Zika virus MR-766 infected in african green monkey Vero cells; format: functional, organism-based; conditions: MR-766, Vero
West Nile virus [14] = test: Antiviral activity against West Nile virus Eg101 infected in african green monkey Vero cells; format: functional, organism-based
Zika virus [15] = test: Antiviral activity against Zika virus Paraiba-01 infected in african green monkey Vero cells; format: functional, organism-based; conditions: Paraiba-01, Vero
West Nile virus [16] = test: Antiviral activity against West Nile virus 13-104 infected in african green monkey Vero cells; format: functional, organism-based; conditions: 13-104, Vero
[17] = system: Tick-borne encephalitis virus; test: Antiviral activity against Tick-borne encephalitis virus Hypr infected in african green monkey Vero cells; format: functional, organism-based

Compound: Cc1cc(C(=O)N[C@@H](C)C(=O)N[C@H](C(=O)N[C@@H](CC(C)C)C(=O)N[C@H](/C=C/C(=O)OCc2ccccc2)C[C@@H]2CCNC2=O)C(C)C)no1
- EC50 [1]: 16.8 µM

Compound: NC(=O)c1nc(F)cnc1O
- EC50 (Ebolavirus): 10.5 µg/mL (≈ 66.8 µM)
- CC50 at 48 h [2]: > 400 µM
- selectivity ratio [3]: > 6.46

Compound: O=C[C@H](C[C@@H]1CCNC1=O)NC(=O)[C@H](Cc1cccc(F)c1)NC(=O)c1cc2ccccc2[nH]1
- CC50 at 24 h [4]: > 100 µM
- selectivity ratio [5]: > 139

Compound: O=C[C@H](C[C@@H]1CCNC1=O)NC(=O)[C@H](CC1CCCCC1)NC(=O)c1cc2ccccc2[nH]1
- CC50 at 24 h [4]: > 100 µM

Compound: CC(C)(C)OC(=O)Nc1cccn([C@@H](CC2CC2)C(=O)N[C@H](CC(=O)NCc2ccccc2)C[C@@H]2CCNC2=O)c1=O
- EC50 [1]: 4 µM

Compound: CCN(CC)CCCC(C)Nc1ccnc2cc(Cl)ccc12 (configuration not stated) [CHLOROQUINE]
- EC50 (SARS-CoV [6]): 1.13 µM
- CC50 at 48 h [2]: > 100 µM
- selectivity ratio [3]: > 88.5

Compound: CCN(CCO)CCCC(C)Nc1ccnc2cc(Cl)ccc12 (configuration not stated) [HYDROXYCHLOROQUINE]
- EC50 (SARS-CoV-2 [7]): 0.72 µM

Compound: Cc1cccc(C)c1OCC(=O)N[C@@H](Cc1ccccc1)[C@@H](O)C[C@H](Cc1ccccc1)NC(=O)[C@H](C(C)C)N1CCCNC1=O [LOPINAVIR]
- EC50 (SARS-CoV-2 [8]): 26.1 µM

Compound: CCOC(=O)C1=C[C@@H](OC(CC)CC)[C@H](NC(C)=O)[C@@H](N)C1 [OSELTAMIVIR]
- EC50 (SARS-CoV-2 [9]): > 100 µM
- CC50 at 48 h [10]: > 100 µM

Compound: NC(=O)c1ncn([C@@H]2O[C@H](CO)[C@@H](O)[C@H]2O)n1 [RIBAVIRIN]
- EC50 (SARS-CoV [11]): > 100 µM

Compound: CC(C)c1nc(CN(C)C(=O)N[C@H](C(=O)N[C@@H](Cc2ccccc2)C[C@H](O)[C@H](Cc2ccccc2)NC(=O)OCc2cncs2)C(C)C)cs1 [RITONAVIR]
- EC50 [12]: > 100 µM

Compound: CCOC(=O)c1c(CSc2ccccc2)n(C)c2cc(Br)c(O)c(CN(C)C)c12 [UMIFENOVIR]
- EC50 (Zika virus [13]): 10.6 µM
- EC50 (West Nile virus [14]): 10.6 µM
- EC50 (Zika virus [15]): 10.6 µM
- EC50 (West Nile virus [16]): 10.6 µM
- EC50 [17]: 10.6 µM
